Calls of active or inactive are those of the source. No rule for the calls is given here.
test system: S. cerevisiae expressing PfHSP40, growth rescue, plate reader; experiment: Yeast growth rescue from Plasmodium falciparum HSP40 toxicity, dose response confirmatory, plate reader (AID 540271);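 also: yeast growth read after three days of incubation at 30 °C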

Compound | AC50
O=C1c2ccccc2C(=O)c2c1oc(C(F)(F)F)c2C(=O)c1ccccc1 | 1 µM
COc1ccc(N(C(=O)c2ccncc2)S(=O)(=O)c2ccc(F)cc2)cc1 | 5.25 µM
CCCCC(=O)NC(c1ccc(OC)c(OC)c1)c1ccc2cccnc2c1O (centres undefined) | 1.83 µM
Cc1ccccc1CN(C)CCS(=O)(=O)c1cc(Cl)ccc1Cl | > 12 µM (inactive)
Cc1nc2ccc(NC(=O)COc3cccc(F)c3)cc2s1 | 10.2 µM
COc1ccc2c(n1)Sc1nc3ccccc3nc1N2 | 1.35 µM
O=[N+]([O-])c1ccc2c(OCc3nnc(-c4ccccc4Br)o3)ncnc2c1 | 6.17 µM
Cc1c(C2(O)CCCCC2)[nH]c2ccc(C(F)(F)F)cc12 | 7.22 µM
COc1ccccc1N(C)S(=O)(=O)c1ccc(Cl)c(C(=O)NNC(=O)c2ccccc2O)c1 | 2.64 µM
O=C(O/N=C(\c1ccccc1)c1ccncc1)c1ccccc1Cl | > 12 µM (inactive)
CCN(CC)c1ccc(/C=N/NC(=O)c2c(Cl)cnn2C)c(O)c1 | 4.78 µM
CC(C)C(=O)NC(c1ccco1)c1ccc2cccnc2c1O (centres undefined) | 4.51 µM
CC(/C=N/n1c(COc2ccccc2)n[nH]c1=S)=C\c1ccccc1 | 4.55 µM
O=C1CC(N2CCCCCC2)C(=O)N1c1ccc2c(c1)OCO2 (centres undefined) | 4.18 µM
COc1cccc(-n2nc(C#N)c(Cl)cc2=O)c1 | 5.59 µM
COC(=O)C1=C(C)NC(C)=C(C(=O)OCC(C)C)C1c1ccccc1[N+](=O)[O-] (centres undefined) | 5.87 µM
O=C(NOC(=O)c1ccccc1)c1ccccc1 | 2.11 µM
C=CS(=O)(=O)c1sc(Cl)c(N2CCOCC2)c1[N+](=O)[O-] | 1.91 µM
CC1CCN(c2nc(-c3ccncc3)nc3ccccc23)CC1 | 7.47 µM
CN(Cc1ccc(Cl)s1)C(=O)CCl | 6.37 µM
Cc1cc(C)c(C(=O)CC(=O)c2cccnc2)c(C)c1 | 2.06 µM
CCCCNc1c(-c2ccc(-c3ccc(OC)cc3)c(OC)c2)nc2ccccn12 | 5.48 µM
O=C(N/N=C/c1cc(Cl)cc([N+](=O)[O-])c1O)c1ccccc1NS(=O)(=O)c1cccs1 | 1.04 µM

Compound | AC50
O=C(CSc1nnc(-c2ccccc2O)n1Cc1ccccc1)NNC(=O)c1ccccc1O | 3.94 µM
O=c1[nH]c(=O)n(C2OC(CO)C(O)C2O)cc1F (centres undefined) | 5.04 µM
CCc1cc(SC#N)cc(C)c1NC(=O)CCl | 4.4 µM
COc1cccc(/C=N/NC(=O)c2nc(-c3ccccc3)cc(-c3ccccc3)n2)c1O | 3.51 µM
CCOC(=O)c1ccc(N2C(=O)CC(N(C)CCc3ccc(OC)c(OC)c3)C2=O)cc1 (centres undefined) | 5.96 µM
O=C(Nc1cc(Oc2ccc(Cl)cc2)cc([N+](=O)[O-])c1)c1ccco1 | > 12 µM (inactive)
Cc1ccsc1/C=C/c1ccc2cccc(O)c2n1 | 3.48 µM
CCc1ccc([C@@H]2CC=C(C(=O)O)[C@H](c3ccc(Cl)cc3)N2S(=O)(=O)c2ccc(C)cc2)cc1 | 5.39 µM
CCCCCCCN1N=C(C)C(C(=O)c2ccccc2)C1=O (centres undefined) | 3.73 µM
c1ccc(-c2ccc(SCc3cccnc3)nn2)nc1 | > 12 µM (inactive)
O=C(c1ccccc1)N1C(=O)C(c2ccccc2)Oc2ccccc21 (centres undefined) | 0.937 µM
CCOC(=O)N1C(=O)C2(CCCCC2)N(c2ccccc2Cl)C1=S | 0.084 µM
Cc1ccc(-c2nc3ccc(Cl)cc3c(=O)n2O)cc1 | 2.08 µM
Cc1ccc(O)c(-c2cc(-c3ccccc3C)[nH]n2)c1 | 5.42 µM
Nc1[nH]c(=O)ncc1F | 1.51 µM
COc1ccc(NC(=O)/C(Cl)=C(/Cl)S(=O)(=O)Cc2ccc(C)cc2)cn1 | 4.67 µM
CCOC(=O)N1CCN(S(=O)(=O)c2ccc(C(=O)NNc3nc4ccc(Cl)cc4s3)cc2)CC1 | 5.51 µM
CC(C)(c1cc(Br)c(O)c(Br)c1)c1cc(Br)c(O)c(Br)c1 | 8.13 µM
CC1(S(=O)(=O)O)CC(=O)c2ccccc2C1=O (centres undefined) | > 12 µM (inactive)
O=S(=O)(Nc1ccccc1)c1ccc(Oc2ncc(C(F)(F)F)cc2Cl)cc1 | 6.09 µM
O=C(N/N=C/c1sc(N2CCOCC2)nc1-c1ccccc1)c1ccccc1O | 6.17 µM
COc1cccc(/C=N/Nc2ncnc3scc(-c4ccccc4)c23)c1O | 1.7 µM
CC(C)(C)c1ccc(-n2nc(C#N)c(Cl)cc2=O)cc1 | 6.03 µM

Compound | AC50
Cc1ccc(-c2cc(-c3ccc(C)cc3)[n+](-c3ccccc3)c(-c3ccc(C)cc3)c2)cc1 | 5.4 µM
S=C(NCCCc1ccccc1)Nc1ccccc1Cl | 9.44 µM
Nc1nonc1C(=O)NCCN=Cc1cc(Cc2ccccc2)cc(Br)c1O | 0.642 µM
O=C(NCC1CC1(Cl)Cl)Nc1ccc(Cl)c(Cl)c1 (centres undefined) | 5.73 µM
Cc1ccc(Cl)cc1NC1=C/C(=N\S(=O)(=O)c2cccs2)c2ccccc2C1=O | 6.42 µM
COc1ccc(OC)c(-c2c3cc(O)c(=O)cc-3oc3cc(O)c(O)cc23)c1 | 3.79 µM
Cc1cccc2sc(NNC(=O)c3ccc(S(=O)(=O)N4CC(C)CC(C)C4)cc3)nc12 (centres undefined) | 1.65 µM
CCCOc1ccc(N2C(=O)CC(N3CCC(C(=O)OCC)CC3)C2=O)cc1 (centres undefined) | 6.34 µM
COc1ccc(-c2sc3ccccc3c2C#Cc2cncn2C)cc1 | 6.77 µM
COc1cccc(C(C)=C2SC(=S)NC2=O)c1 | 9.37 µM
CC1(C)C2CCC1(C)C(OC(=O)c1ccc(O)cc1)C2 (centres undefined) | 4.38 µM
O=C(O)c1ccc(N/N=C/C=C/c2ccccc2)cc1 | 3.72 µM
CC(C)N1CCN(c2ccc(OC[C@H]3CO[C@](Cn4cncn4)(c4ccc(Cl)cc4Cl)O3)cc2)CC1 | 2 µM
CCC(C)n1ncn(-c2ccc(N3CCN(c4ccc(OCC5COC(Cn6cncn6)(c6ccc(Cl)cc6Cl)O5)cc4)CC3)cc2)c1=O (centres undefined) | 0.129 µM
Cc1ccc(S(=O)(=O)Nc2ccc(O)c3cccnc23)cc1 | > 12 µM (inactive)
O=C(CSc1nc2ccccc2s1)N/N=C/c1cc([N+](=O)[O-])ccc1O | 5.52 µM
O=C(NC1=CC(=O)c2ccccc2C1=O)c1ccccc1 | 7.77 µM
Cc1onc(-c2ccccc2)c1C(=O)NC(=S)NNC(=O)c1cc(-c2ccc(F)cc2)n[nH]1 | > 4.2 µM (inactive)
Oc1ccccc1-c1cc(-c2ccc3c(c2)OCCO3)n[nH]1 | 5.24 µM
Oc1c(CN2CCCC2)cc(COCc2ccccc2)c2cccnc12 | 5.55 µM
Cc1ccc(NC2(c3nnnn3-c3c(C)cccc3C)CCCCC2)cc1 | 6.94 µM
CCCCOC(=O)/C=C/c1ccc(OC(=O)OC)c(OC(=O)OC)c1 | 5.54 µM
CCC(Oc1ccc(Br)cc1Cl)C(=O)Nc1nnc(C2CC2)s1 (centres undefined) | 4.51 µM

Compound | AC50
c1ccc(Nc2cccc(Nc3ccccc3)c2)cc1 | 5.81 µM
c1ccc(Cn2cc(-c3cccnc3)cn2)cc1 | 1.62 µM
COC(=O)/C=C\C(=O)Nc1cccc([N+](=O)[O-])c1 | 1.83 µM
O=C(N[C@@H](Cc1ccccc1)C(=O)CCl)OCc1ccccc1 | 2.19 µM
C=CCOC(Cn1ccnc1)c1ccc(Cl)cc1Cl (centres undefined) | 1.89 µM
O=C(N/N=C/c1c(O)n(Cc2ccccc2)c(=O)c2ccccc12)c1cccnc1 | 6.92 µM
Cc1csc(NC(=S)Nc2cccc(Cl)c2)n1 | 11.2 µM
COc1cccc(CNC(=O)CSc2ccc(-c3ccccn3)nn2)c1 | 5.07 µM
CC12CC3(C)CC(C)(C1)CC(NC(=O)N1CCCC1)(C2)C3 | 1.7 µM
O=C(CSc1ccc(-c2ccccn2)nn1)c1ccccc1 | 2.48 µM
O=C1c2cccc(Cl)c2C(=O)c2c1cccc2N1CCCC1 | 4.9 µM
O=C(Nc1ccc(Cl)cc1C(=O)Nc1ccc(Br)cn1)c1ccco1 | 3.64 µM
Cc1cc(/C=C2\SC(=S)NC2=O)c(C)n1-c1cccc(O)c1 | 9.83 µM
CCCCC(CC)c1nnc(NC(=O)c2cccs2)s1 (centres undefined) | 6.66 µM
CCOc1ccc(N/N=C(/C#N)C(N)=O)cc1 | 4.1 µM
C=CCc1ccc(O)c(-c2ccc(O)c(CC=C)c2)c1 | 4.8 µM
CCC(C)c1ccc(NC(=S)NCCn2cc(Br)cn2)cc1 (centres undefined) | 10.1 µM
CC/C(=N/NC(=O)c1ccccc1O)c1c(C)[nH]n(-c2ccccc2)c1=O | 0.705 µM
CCc1ccc(S(=O)(=O)N(C(=O)c2ccncc2)c2ccc(OC(=O)c3ccncc3)cc2)cc1 | 3.01 µM
CSC(=S)N/N=C/c1ccccc1 | 5.83 µM
O=c1nc(N/N=C/c2ccccn2)cn[nH]1 | 5.76 µM
CC(C)CN=Cc1c(O)c([N+](=O)[O-])cc2oc3c(c12)CCCC3 | 1.33 µM
CCc1cc(C(=O)Nc2nc(-c3ccccn3)cs2)sc1C | 4.3 µM

Compound | AC50
O=CC1=C(c2ccccc2)Oc2ccccc2O1 | 2.78 µM
COc1ccc2oc(=O)c(-c3csc(Nc4cccc(O)c4)n3)cc2c1 | 4.91 µM
O=c1c(/C=N/O)coc2ccc(Cl)cc12 | > 12 µM (inactive)
C=CCN(CC=C)C(=S)NC(=O)c1ccc(OC)c(Br)c1 | 7.96 µM
COc1cc2cnc(-c3ccccc3)c(C(=O)c3ccc(F)cc3)c2cc1OC | 4.57 µM
CC(CNC(=O)COc1ccccc1)OC(=O)Nc1ccc(Cl)c(Cl)c1 (centres undefined) | 6.12 µM
COc1cc(NC(=O)CSc2ccc(-c3ccccn3)nn2)cc(OC)c1 | 1.59 µM
CSc1nccc(NC(=O)c2ccc(C(C)(C)C)cc2)n1 | 5.08 µM
Nc1cc2c3ccccc3ccc2c2ccccc12 | 2.13 µM
Cc1nc2ccc(NC(=O)Cc3ccc4c(c3)OCCO4)cc2s1 | 4.83 µM
COc1cccc2c1C(=O)c1c(O)c3c(c(O)c1C2=O)CC(O)(C(C)=O)CC3OC1CC(N(C)C)C(O)C(C)O1 (centres undefined) | 1.41 µM
Cc1cc([N+](=O)[O-])c(NC2CCCCC2)c([N+](=O)[O-])c1 | 9.82 µM
O=C(CC1CC2CCC1C2)Nc1nc(-c2ccccn2)cs1 (centres undefined) | 5.1 µM
Cc1ccc([C@@H]2CC=C(C(=O)O)[C@H](c3ccc(Br)cc3)N2S(=O)(=O)c2ccccc2C)cc1 | 5.21 µM
C[C@@]12C(=O)Nc3ccc(F)cc3C(=O)N1[C@H]1c3ccccc3OC[C@@H]1[C@@H]2c1ccccc1 | 8.46 µM
CCCCn1c(=O)c(C(=O)NCc2ccncc2)c(O)c2ccccc21 | 4.99 µM
CNc1ccc2oc(C[C@H]3O[C@@]4(CC[C@H]3C)O[C@H]([C@H](C)C(=O)c3ccc[nH]3)[C@H](C)C[C@H]4C)nc2c1C(=O)O | 0.662 µM
COc1cccc(/C=N/NC(=O)c2cc(-c3cccn3C)n[nH]2)c1O | 10.2 µM
Clc1ccc(C(Cn2ccnc2)OCc2c(Cl)cccc2Cl)c(Cl)c1 (centres undefined) | 0.241 µM
Cc1ccc2c(C)c3ccc4ccccc4c3c[n+]2c1 | 6 µM
O=C(NNC(=O)c1cc(Cl)ccc1O)c1ccc(NS(=O)(=O)c2cccs2)cc1 | 5.61 µM
Cc1ccc(NC(=O)CN(C)C(=O)c2cccnc2Nc2cccc(C(F)(F)F)c2)cc1 | 4.74 µM

Reference: PubChem BioAssay AID540271 (Broad Institute, 2011)
